Patent US8097440B1, “Engineered microorganisms capable of producing target compounds under anaerobic conditions” (Gevo, Inc., priority 2008, dated 2012)
Changes are numbered by the printed parent chain.

Assays:
Assay type in all cases: biochemical
[1] = molecular target: T1, E. coli KARI Ec_IlvC variant Ec_IlvC^Q110A-his6 (Q110A), SEQ ID NO: 21 (Escherichia coli, UniProt P05793, Q110A); assay: KARI cuvette assay, purified Ec_IlvC^Q110A-his6; details: relative to Ec_IlvC^his6 with NADPH
T1 sequence (P05793 with tags, fused parts or gaps Q110A): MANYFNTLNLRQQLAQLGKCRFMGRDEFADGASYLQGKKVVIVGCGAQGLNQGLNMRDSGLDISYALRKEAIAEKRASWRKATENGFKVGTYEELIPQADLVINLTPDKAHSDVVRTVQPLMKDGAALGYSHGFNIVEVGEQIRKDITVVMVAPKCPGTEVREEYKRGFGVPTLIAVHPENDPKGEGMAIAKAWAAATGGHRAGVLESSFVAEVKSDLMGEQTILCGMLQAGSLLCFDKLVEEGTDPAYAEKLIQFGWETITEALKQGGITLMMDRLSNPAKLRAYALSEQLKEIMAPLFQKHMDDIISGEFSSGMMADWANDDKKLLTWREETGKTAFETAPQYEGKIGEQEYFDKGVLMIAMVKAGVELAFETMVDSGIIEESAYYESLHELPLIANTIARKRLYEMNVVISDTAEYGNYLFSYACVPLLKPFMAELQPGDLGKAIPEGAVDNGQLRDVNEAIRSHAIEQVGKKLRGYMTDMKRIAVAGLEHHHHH
Protocol: (§1) KARI cuvette assay: KARI activity was assayed kinetically by monitoring the decrease in NAD(P)H concentration by measuring the absorbance at 340 nm. A reaction buffer was prepared containing 250 mM potassium phosphate pH 7, 1 mM DTT and 10 mM MgCl2. Cell pellets were resuspended (0.25 g wet weight/mL buffer) in 250 mM potassium phosphate (KPi) buffer containing 1 mM DTT and 10 mM MgCl2. The resuspended cells were lysed by sonication for 1 min with a 50% duty cycle and pelleted at 11000×g and 4° C. for 15 min. A reaction mixture consisting of 910 μl reaction buffer, 50 μl acetolactate, and 20 μl lysate was prepared in a cuvette. The reaction was initiated by addition of 20 μL of 10 mM NAD(P)H. A substrate free control was conducted using reaction buffer without the addition of acetolactate.
(§2) Purification of KARI: Cell pellets used for purification were resuspended in purification buffer A (20 mM Tris, 20 mM imidazol, 100 mM NaCl, 10 mM MgCl2, pH 7.4). KARI was purified by IMAC (Immobilized metal affinity chromatography) over a 1 ml Histrap High Performance (histrap HP) column pre-charged with Nickel (GE Healthcare) using an Akta FPLC system (GE Healthcare). […]

[2] = molecular target: T2, E. coli KARI Ec_IlvC variant Ec_IlvC^2H10-his6 (A71S, R76D, S78D, Q110A), SEQ ID NO: 31 (Escherichia coli, UniProt P05793, A71S/Q110A/R76D/S78D); assay: KARI assay, purified Ec_IlvC^2H10-his6; details: acetolactate as substrate
T2 construct: T37 values cited for the gene on pGV1976
T2 sequence (P05793 with tags, fused parts or gaps A71S/R76D/S78D/Q110A): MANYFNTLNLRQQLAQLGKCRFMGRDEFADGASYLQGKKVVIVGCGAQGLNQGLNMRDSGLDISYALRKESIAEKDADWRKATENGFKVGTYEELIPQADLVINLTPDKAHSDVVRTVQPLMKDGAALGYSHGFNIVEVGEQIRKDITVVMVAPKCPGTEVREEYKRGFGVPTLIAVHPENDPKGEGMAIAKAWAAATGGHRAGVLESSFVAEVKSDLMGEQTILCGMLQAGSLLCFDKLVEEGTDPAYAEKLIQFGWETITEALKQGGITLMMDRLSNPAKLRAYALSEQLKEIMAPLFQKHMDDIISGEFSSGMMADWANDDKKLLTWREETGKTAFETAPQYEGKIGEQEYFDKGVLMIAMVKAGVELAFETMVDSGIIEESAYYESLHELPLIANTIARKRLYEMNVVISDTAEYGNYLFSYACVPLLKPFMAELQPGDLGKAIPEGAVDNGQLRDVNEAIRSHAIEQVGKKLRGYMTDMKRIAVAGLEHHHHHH
Protocol: as §1, with “The reaction was initiated by addition of 20 μL of 10 mM NAD(P)H. A substrate free control was conducted using reaction buffer without the addition of acetolactate.” left out
Only 20% of the enzymes of the recombination library were active on NADH. After screening 1,000 clones using the NADH depletion assay at 340 nm, 26 KARI variants were selected for a rescreen by the high-throughput assay described in Example 14 and eight thereof were expressed in 25 ml LBamp medium in shake flasks according to the protocol for cell growth and protein expression in shake flasks as described in Example 14, purified according to the protocol for purification of KARI enzymes as described in Example 14, and NAD(P)H depletion at 340 nm was measured again. […] The KM values of variants Ec_llvC^2H10-his6 and Ec_llvC^6E6-his6 were measured and the catalytic efficiencies were calculated.

[3] = molecular target: T3, E. coli KARI Ec_IlvC variant Ec_IlvC^S78D-his6 (S78D), SEQ ID NO: 17 (Escherichia coli, UniProt P05793, S78D); assay: KARI cuvette assay, purified Ec_IlvC^S78D-his6; details: relative to Ec_IlvC^his6 with NADPH
T3 sequence (P05793 with tags, fused parts or gaps S78D): T2 sequence (P05793 with tags, fused parts or gaps A71S/R76D/S78D/Q110A) with S71A, D76R, A110Q
Protocol: as §1, §2

NC(=O)C1=CN([C@@H]2O[C@H](COP(=O)(O)OP(=O)(O)OC[C@H]3O[C@@H](n4cnc5c(N)ncnc54)[C@H](O)[C@@H]3O)[C@@H](O)[C@H]2O)C=CC1 [NADH, nicotinamide adenine dinucleotide]
(kcat/KM with NADH)/(kcat/KM of Ec_IlvC^his6 with NADPH) [1]: 13%
kcat/KM [2]: 60,322 M^−1 * s^−1
(kcat/KM with NADH)/(kcat/KM of Ec_IlvC^his6 with NADPH) [3]: 32%
